# Assay results from patent US20130030012A1, “COMPOUNDS” (Glaxo Group Limited, priority 2011, published 2013).
# Structures can show the parent of a compound that is named as a salt. Where two headings read alike, the source gives them in different places.
# How the values were obtained:
# [1] = molecular target: T1, recombinant human Lp-PLA2 (Homo sapiens, UniProt Q13093); assay: Recombinant human Lp-PLA2 assay (rhLp-PLA2, PED6 assay); assay type: biochemical; conditions: upper limit for pIC50 in this assay is 9.3
# T1 sequence (Q13093 22-441): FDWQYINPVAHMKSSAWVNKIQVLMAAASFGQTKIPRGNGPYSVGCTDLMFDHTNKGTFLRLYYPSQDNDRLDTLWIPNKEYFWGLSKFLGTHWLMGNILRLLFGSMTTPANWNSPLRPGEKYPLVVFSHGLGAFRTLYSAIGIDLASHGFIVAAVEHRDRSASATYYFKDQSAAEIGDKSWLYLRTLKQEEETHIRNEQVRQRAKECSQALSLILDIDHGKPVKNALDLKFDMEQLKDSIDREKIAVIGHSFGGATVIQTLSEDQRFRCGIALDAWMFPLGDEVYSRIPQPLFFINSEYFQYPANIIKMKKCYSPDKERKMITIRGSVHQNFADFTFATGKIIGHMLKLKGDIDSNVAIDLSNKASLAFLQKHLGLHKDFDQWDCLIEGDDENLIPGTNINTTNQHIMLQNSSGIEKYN
# Excerpt: (1) Recombinant Human Lp-PLA2 Assay (rhLp-PLA2) (Also Referred to as “PED6” Assay)
# N-((6-(2,4-dinitrophenyl)amino)-hexanoyl)-2-(4,4-difluoro-5,7-dimethyl-4-bora-3a,4a-diaza-s-indacene-3-pentanoyl)-1-hexadecanoyl-sn-glycero-3-phosphoethanolamine, triethylammonium salt (PED6) is a commercially available fluorescently-labeled phospholipid, which is commercially available from Invitrogene and Molecular Probes. There is a quenching […] and a Bodipy fluorescein (FL) group in the sn2 position. Upon cleavage with Lp-PLA2, the Bodipy FL group is liberated and then may result in an increase in fluorescence. Inhibitors of Lp-PLA2 therefore prevent this cleavage and no fluorescent increase is observed.
# The PED6 assay was run as an unquenched 10 μL assay. The source plate containing the compounds to be tested was prepared by making 1:3 (by volume) serial dilution of the compounds within DMSO on 384-well microplate. Then, 0.01 μL of the compounds on compound source plate were transferred into 384 well Greiner 784076 (black) plates using ECHO liquid dispenser. 5 μL of recombinant human Lp-PLA2 enzyme (4 nM (or 110 pM) rhLp-PLA2 in assay buffer of 50 mM HEPES, pH 7.4, 150 mM NaCl, 1 mM CHAPS) was added to each well of the plate. Plates were centrifuged for 10 sec at 500 rpm. After 30 minutes preincubation, 5 μL of substrate ([…] (or 5 μM) PED6 [from 5 mM DMSO stock] in assay buffer of 50 mM HEPES, pH 7.4, 150 mM NaCl, 1 mM CHAPS) was added to 384 well Greiner 784076 (black) plates. Plates were centrifuged for 10 sec at 500 rpm. The plate was covered to protect it from light and incubated for 20 min at room temperature. The plates were read for fluorescence intensity at ex: 480/em: 540 using ViewLux microplate imager for Envision spectrofluoroimeters pIC50 data, curve and QC analysis was conducted by using XL fit module in Excel.
# The compounds described below were tested generally according to the PED6 assay described above.
# [2] = molecular target: T2, Lp-PLA2 in human plasma (Homo sapiens, UniProt Q13093); assay: Lp-PLA2 human plasma assay (Thio-PAF assay); assay type: biochemical; conditions: pooled human plasma; read-out: pIC50 values in the thio-PAF assay (converted)
# T2 construct: from tissue; host or cells: pooled human plasma
# T2 sequence (Q13093 22-441): T1 sequence (Q13093 22-441)
# Excerpt: The human plasma assay utilizes a thioester analog of PAF (phosphatidylcholine), where hydrolysis yields to the formation of a phospholipid containing a free thiol group. The amount of thiol is quantitated continuously by reacting with CPM (7-diethylamino-3-(4′-maleimidylphenyl)-4-methylcoumarin), a maleimide which increases in fluoresence after Michael addition of thiols. This assay may detect the activity of Lp-PLA2 in human plasma, as determined by specific inhibition by Lp-PLA2 inhibitors.
# The thio-PAF assay was run as a quenched 15 μL assay. Compounds source plate was prepared by making 1:3 (by volume) serial dilution of the compounds into pure DMSO on 384-well microplate. 0.01 μL of compounds on compound source plate were transferred to 384 well Greiner 784076 (black) low-volume plates by ECHO liquid dispenser. 8 μL pooled human plasma, which was previously aliquoted and frozen, was added. Plates were centrifuged for 10 sec at 500 rpm. After 30 minutes preincubation, 2 μL of substrate solution comprising 2.5 mM 2-thio-PAF [from ethanol stock], […] CPM [from a DMSO stock] and 3.2 mM NEM (N-ethylmaleimide) [made fresh daily in DMSO] in assay buffer of 50 mM HEPES, pH 7.4, 150 mM NaCl, 1 mM CHAPS was added to 384 well Greiner 784076 (black) low-volume plates by BRAVO liquid handling station. After 2 mins, reaction was quenched with 5 μL of 5% aqueous trifluoroacetic acid (TFA). Plates were covered to protect from light and incubated for 40 min at room temperature. Plates were read at ex: 380/em: 485 using—Envision microplate reader. pIC50 data, curve and QC analysis was conducted by using XLFit module in Excel.
# [3] = read-out: pIC50 values in the PED6 assay (converted)
# [4] = Table 1, read-out: rhLp-PLA2 (PED6 assay) (pIC50) (converted)
"IC50 [1, 3] [nM]",IC50 [2] [nM],"IC50 [1, 4] [nM]",SMILES
≤ 10,≤ 100,,"CN1CCCn2c1cc(OCc1ccc(Oc3cccc(C(F)(F)F)c3)c(C#N)c1)nc2=O [Example 1, 5-(((1-methyl-6-oxo-2,3,4,6-tetrahydro-1H-pyrimido[1,6-a]pyrimidin-8-yl)oxy)methyl)-2-(3-(trifluoromethyl)phenoxy)benzonitrile]"
≤ 10,≤ 100,2.51,"CN1CCCn2c1cc(OCc1ccc(Oc3ccc(C(F)(F)F)cn3)c(C#N)c1)nc2=O [Example 2, 5-(((1-methyl-6-oxo-2,3,4,6-tetrahydro-1H-pyrimido[1,6-a]pyrimidin-8-yl)oxy)methyl)-2-((5-(trifluoromethyl)pyridin-2-yl)oxy)benzonitrile]"
≤ 1,≤ 100,1,"CN1CCCn2c1cc(OCc1cc(F)c(Oc3ccc(C(F)(F)F)nc3)c(F)c1)nc2=O [Example 3, 8-((3,5-difluoro-4-((6-(trifluoromethyl)pyridin-3-yl)oxy)benzyl)oxy)-1-methyl-3,4-dihydro-1H-pyrimido[1,6-a]pyrimidin-6(2H)-one]"
≤ 10,≤ 100,,"CN1CCCn2c1cc(OCc1ccc(Oc3ccc(C(F)(F)F)nc3)c(F)c1)nc2=O [Example 4, 8-((3-fluoro-4-((6-(trifluoromethyl)pyridin-3-yl)oxy)benzyl)oxy)-1-methyl-3,4-dihydro-1H-pyrimido[1,6-a]pyrimidin-6(2H)-one]"
≤ 10,≤ 100,,"CN1CCCn2c1cc(OCc1ccc(Oc3ccc(F)c(F)c3)c(F)c1)nc2=O [Example 5, 8-((4-(3,4-difluorophenoxy)-3-fluorobenzyl)oxy)-1-methyl-3,4-dihydro-1H-pyrimido[1,6-a]pyrimidin-6(2H)-one]"
≤ 10,≤ 1000,,"CN1CCCn2c1cc(OCc1ccc(Oc3ccc(Cl)c(C(F)(F)F)c3)cc1)nc2=O [Example 6, 8-((4-(4-chloro-3-(trifluoromethyl)phenoxy)benzyl)oxy)-1-methyl-3,4-dihydro-1H-pyrimido[1,6-a]pyrimidin-6(2H)-one]"
≤ 1,≤ 100,0.794,"CN1CCCn2c1cc(OCc1ccc(Oc3ccc(Cl)c(Cl)c3)cc1)nc2=O [Example 7, 8-((4-(3,4-dichlorophenoxy)benzyl)oxy)-1-methyl-3,4-dihydro-1H-pyrimido[1,6-a]pyrimidin-6(2H)-one]"
,≤ 1000,,"CN1CCCn2c1cc(OCc1ccc(F)cc1)nc2=O [Example 8, 8-((4-fluorobenzyl)oxy)-1-methyl-3,4-dihydro-1H-pyrimido[1,6-a]pyrimidin-6(2H)-one]"
,≤ 1000,,"CN1CCCn2c1cc(NCCc1ccc(Oc3ccc(Cl)c(C(F)(F)F)c3)cc1)nc2=O [Example 9, 8-((4-(4-chloro-3-(trifluoromethyl)phenoxy)phenethyl)amino)-1-methyl-3,4-dihydro-1H-pyrimido[1,6-a]pyrimidin-6(2H)-one, trifluoroacetic acid salt]"
≤ 10,≤ 100,,"CN1CCCn2c1cc(OCc1ccc(F)c(F)c1)nc2=O [Example 10, 8-((3,4-difluorobenzyl)oxy)-1-methyl-3,4-dihydro-1H-pyrimido[1,6-a]pyrimidin-6(2H)-one, trifluoroacetic acid salt]"
,≤ 1000,,"CN1CCCn2c1cc(OCc1cccc(F)c1F)nc2=O [Example 12, 8-((2,3-difluorobenzyl)oxy)-1-methyl-3,4-dihydro-1H-pyrimido[1,6-a]pyrimidin-6(2H)-one]"
≤ 10,≤ 100,,"CN1CCCn2c1cc(OCc1ccc(Oc3ccc(F)c(C(F)(F)F)c3)c(F)c1)nc2=O [Example 13, 8-((3-fluoro-4-(4-fluoro-3-(trifluoromethyl)phenoxy)benzyl)oxy)-1-methyl-3,4-dihydro-1H-pyrimido[1,6-a]pyrimidin-6(2H)-one]"
≤ 10,,,"CN1CCCn2c1cc(OCc1ccc(Oc3ccc(F)c(F)c3)cc1)nc2=O [Example 14, 8-((4-(3,4-difluorophenoxy)benzyl)oxy)-1-methyl-3,4-dihydro-1H-pyrimido[1,6-a]pyrimidin-6(2H)-one]"
,≤ 1000,,"CN1CCCn2c1cc(OCc1ccc(F)cc1F)nc2=O [Example 20, 8-((2,4-difluorobenzyl)oxy)-1-methyl-3,4-dihydro-1H-pyrimido[1,6-a]pyrimidin-6(2H)-one]"
,≤ 100,,"CN1CCCn2c1cc(OCc1cccc(C#N)c1)nc2=O [Example 27, 3-(((1-methyl-6-oxo-2,3,4,6-tetrahydro-1H-pyrimido[1,6-a]pyrimidin-8-yl)oxy)methyl)benzonitrile]"
,≤ 1000,,"CN1CCCn2c1cc(OCc1cc(F)cc(F)c1)nc2=O [Example 31, 8-((3,5-difluorobenzyl)oxy)-1-methyl-3,4-dihydro-1H-pyrimido[1,6-a]pyrimidin-6(2H)-one]"
,≤ 100,,"CN1CCCn2c1cc(OCc1cc(F)cc(C#N)c1)nc2=O [Example 33, 3-fluoro-5-(((1-methyl-6-oxo-2,3,4,6-tetrahydro-1H-pyrimido[1,6-a]pyrimidin-8-yl)oxy)methyl)benzonitrile]"
,≤ 100,,"CN1CCCn2c1cc(OCc1cccc(F)c1)nc2=O [Example 37, 8-((3-fluorobenzyl)oxy)-1-methyl-3,4-dihydro-1H-pyrimido[1,6-a]pyrimidin-6(2H)-one]"
,≤ 1000,,"CN1CCCn2c1cc(SCc1ccc(F)cc1)nc2=O [Example 66, 8-(4-Fluoro-benzylsulfanyl)-1-methyl-1,2,3,4-tetrahydro-pyrimido[1,6-a]pyrimidin-6-one]"
,≤ 1000,,"CN1CCCn2c1cc(OCc1ccc(Oc3cncnc3)c(C#N)c1)nc2=O [Example 86, 5-(((1-methyl-6-oxo-2,3,4,6-tetrahydro-1H-pyrimido[1,6-a]pyrimidin-8-yl)oxy)methyl)-2-(pyrimidin-5-yloxy)benzonitrile]"
≤ 10,,,"Cc1ccc(Oc2ccc(COc3cc4n(c(=O)n3)CCCN4)cc2)cc1F [Example 108, 8-((4-(3-fluoro-4-methylphenoxy)benzyl)oxy)-3,4-dihydro-1H-pyrimido[1,6-a]pyrimidin-6(2H)-one]"
≤ 10,,,"CN1CCCn2c1cc(OCCc1ccc(Oc3ccc(F)c(F)c3)cc1)nc2=O [Example 110, 8-(4-(3,4-difluorophenoxy)phenethoxy)-1-methyl-3,4-dihydro-1H-pyrimido[1,6-a]pyrimidin-6(2H)-one]"
,≤ 1000,,"O=c1nc(OCCc2ccc(F)c(F)c2)cc2n1CCCN2 [Example 111, 8-(3,4-difluorophenethoxy)-3,4-dihydro-1H-pyrimido[1,6-a]pyrimidin-6(2H)-one]"
,≤ 100,,"O=c1nc(OCCc2ccc(Cl)c(Cl)c2)cc2n1CCCN2 [Example 112, 8-(3,4-dichlorophenethoxy)-3,4-dihydro-1H-pyrimido[1,6-a]pyrimidin-6(2H)-one]"
